In publication PMC4269221 (Cell reports, 2014):
Entries after “also recorded” stand apart in the source; their conditions may differ.

Experiments:
[1] = test system: p53-Mdm4 complexes in Saos-2 p53-Mdm4 ReBiL cells; assay: Real-time BiLC; assay type: cell-based; conditions: 37 °C; for disruption of preformed p53-Mdm4 complexes in living cells: pre-induced cells, doxycycline withdrawal, 10% FBS media
[2] = test system: p53-Mdm2 complexes in cell lysates; assay: BiLC assay using cell lysates, p53-Mdm2; assay type: biochemical; conditions: absence of FBS, RT 10 minutes, luminescence at 26 °C
[3] = test system: p53-Mdm4 complexes in cell lysates; assay: BiLC assay using cell lysates, p53-Mdm4; assay type: biochemical; conditions: absence of FBS, RT 10 minutes, luminescence at 26 °C
[4] = biological target: p53-Mdm2 complexes in Saos-2 p53-Mdm2 ReBiL cells (Homo sapiens, UniProt Q00987); assay: Real-time BiLC; assay type: cell-based; conditions: pre-induced cells, doxycycline withdrawal, 10% FBS media, 37 °C
[5] = test system: Mdm2-Mdm4 N-terminal BiLC pair (U2OS Mdm4_111 - Mdm2_108 ReBiL cells); assay: ReBiL assay of the Mdm2-Mdm4 N-terminal BiLC pair in living cells; assay type: cell-based; conditions: 500 ng/ml doxycycline, 24 hours, 37 °C
Saos-2 cells = assay: Lactate dehydrogenase; assay type: cell-based; conditions: absence of serum, 25 μM and 10 μM, 6 hr
Saos-2 cells (p53-null) = assay: CellTiter Glo cell viability assay, Saos-2; conditions: Saos-2 ReBiL cells, 6 hr, CellTiter Glo (Figure 5)

Sequence of p53-Mdm2 complexes in Saos-2 p53-Mdm2 ReBiL cells (Q00987 whole entry, one chain of several): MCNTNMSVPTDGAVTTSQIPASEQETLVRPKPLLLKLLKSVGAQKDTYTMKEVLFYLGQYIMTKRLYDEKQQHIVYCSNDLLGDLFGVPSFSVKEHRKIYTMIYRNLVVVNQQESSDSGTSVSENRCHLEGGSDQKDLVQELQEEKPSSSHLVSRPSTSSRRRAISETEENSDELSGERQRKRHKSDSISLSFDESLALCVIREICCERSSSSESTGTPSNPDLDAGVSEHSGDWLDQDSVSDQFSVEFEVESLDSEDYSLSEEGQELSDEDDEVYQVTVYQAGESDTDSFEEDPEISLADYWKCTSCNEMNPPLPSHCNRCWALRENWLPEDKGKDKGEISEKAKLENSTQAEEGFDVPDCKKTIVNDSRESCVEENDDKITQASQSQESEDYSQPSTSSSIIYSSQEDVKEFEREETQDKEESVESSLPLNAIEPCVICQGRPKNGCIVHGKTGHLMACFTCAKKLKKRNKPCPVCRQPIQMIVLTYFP

| Compound | p53-Mdm4 BiLC signal (newly synthesized complexes) ([1]; doxycycline 500 ng/ml and compound added at Time = 0, 24-48 hr) | p53-Mdm2 disruption in lysate BiLC assay [2] | p53-Mdm4 disruption in lysate BiLC assay [3] | disruption of preformed p53-Mdm2 complexes in living cells [4] | disruption of preformed p53-Mdm4 complexes in living cells [1] | Mdm2-Mdm4 N-terminal domain BiLC signal (association) [5] | LDH leakage / cell membrane damage (Saos-2 cells) | p53-independent cytotoxicity at high concentrations (Saos-2 cells (p53-null)) |
| --- | --- | --- | --- | --- | --- | --- | --- | --- |
| CCOc1cc(/C=C2/C(=O)N(c3ccccc3)N=C2C)cc(Cl)c1OCC(=O)OC [SJ-172550] | No decrease; also recorded: lacks p53-Mdm4 disruption activity | no activity | no activity | – | – | – | – | – |
| RO-5963 | – | no activity | no activity | limited ability to disrupt; also recorded: moderately reduces | no effect | increased the BiLC signal; also recorded: enhances | – | – |
| COc1ccc(C2=N[C@@H](c3ccc(Cl)cc3)[C@@H](c3ccc(Cl)cc3)N2C(=O)N2CCNC(=O)C2)c(OC(C)C)c1 [Nutlin-3a] | – | efficiently disrupted | – | – | not affected; also recorded: has no effect | did not promote | did not induce membrane leakage | induce p53-independent cytotoxicity |
